Data published in publication PMC12040169 (PLOS Biology, 2025).

Test: in vitro
Settings: human, hela cells, % viability

SMILES | viability at 28.5 h, 10 µM [%]
O=C(C[C@@H]1CCNC[C@@H]1Cc1cc(-c2ccccc2)on1)N1CCN(c2ccccn2)CC1 [CBK289150] | 81
COc1ccc2c(c1)CCN=C2C[C@H]1CN(C(=O)C2CC2)CC[C@H]1CC(=O)O [CBK289154] | 108
COc1ccc2c(c1)CCN=C2C[C@H]1CN(C(=O)C(C)(C)C)CC[C@H]1CC(=O)O [CBK289155] | 92.5
O=C(O)C[C@@H]1CCN(C(=O)C2CCCCC2)C[C@@H]1CC1=NCCc2ccccc21 [CBK289158] | 101
O=C(O)C[C@@H]1CCN(C(=O)NCc2ccccc2)C[C@@H]1CC1=NCCc2ccccc21 [CBK289161] | 94.7
Cc1ccc2c(c1)C(C[C@H]1CN(C(=O)C3CCCC3)CC[C@H]1CC(=O)O)=NCC2 [CBK289163] | 88.5
CC(=O)N1CC[C@@H](CC(=O)O)[C@@H](CC2=NCCc3ccc(C(C)(C)C)cc32)C1 [CBK289165] | 84.4
O=C(O)C[C@@H]1CCN(C(=O)c2ccco2)C[C@@H]1CC1=NCCc2cc(F)ccc21 [CBK289166] | 91.1
Cc1nn(-c2ccccn2)c(C)c1[C@@H]1C=C[C@@H](NS(C)(=O)=O)C1 [CBK289169] | 86.8
Cc1nn(-c2ccccn2)c(C)c1[C@@H]1C=C[C@@H](NC(=O)CCC(=O)O)C1 [CBK289170] | 81.9
Cc1nn(CCC#N)c(C)c1[C@@H]1C=C[C@@H](NC(=O)Nc2ccccc2)C1 [CBK289173] | 92.9
Cc1nn(CCC#N)c(C)c1[C@@H]1C=C[C@@H](NC(=O)NCc2ccccc2)C1 [CBK289174] | 96.8
CC(C)(C)CC(=O)N1C[C@@H]2C[C@H](C1)c1ccc(NC(=O)Nc3ccccc3)c(=O)n1C2 [CBK289176] | 85.8
O=C(Nc1ccc2n(c1=O)C[C@@H]1CNC[C@H]2C1)c1ccncc1 [CBK289177] | 107
COc1ccc(-c2ccc3n(c2=O)C[C@H]2C[C@@H]3CN(C(=O)c3ccncc3)C2)cc1 [CBK289178] | 90.8
O=C(O)CCC(=O)N1C[C@@H]2C[C@H](C1)c1ccc(-c3ccc4ccccc4c3)c(=O)n1C2 [CBK289179] | 107
COc1ccc(C(=O)N2C[C@@H]3C[C@H](C2)c2ccc(-c4cccnc4)c(=O)n2C3)cc1 [CBK289182] | 86.7
CC(C)NC(=O)N1C[C@@H]2C[C@H](C1)c1ccc(-c3cccnc3)c(=O)n1C2 [CBK289184] | 97.5
COc1ccccc1NC(=O)N1C[C@@H]2C[C@H](C1)c1ccc(-c3cncnc3)c(=O)n1C2 [CBK289186] | 114
N#Cc1ccc(C(=O)N2C[C@@H]3C[C@H](C2)c2ccc(-c4cccc(C#N)c4)c(=O)n2C3)cc1 [CBK289187] | 101
O=C(O)CCC(=O)N1C[C@@H]2C[C@H](C1)c1c(-c3ccc(Cl)cc3)ccc(=O)n1C2 [CBK289190] | 85.9
CSCC(=O)N1C[C@@H]2C[C@H](C1)c1c(-c3cncnc3)ccc(=O)n1C2 [CBK289195] | 79.4
CC(=O)Nc1ccc(-c2ccc(=O)n3c2[C@@H]2C[C@@H](CN(C(=O)C(C)(C)C)C2)C3)cc1 [CBK289199] | 112
CC(=O)Nc1ccc(-c2ccc(=O)n3c2[C@@H]2C[C@@H](CN(C4CCOCC4)C2)C3)cc1 [CBK289201] | 98
O=C(Nc1ccc2n(c1=O)C[C@H]1C[C@@H]2CN(C(=O)Cc2cccs2)C1)c1ccco1 [CBK289204] | 102

SMILES | viability at 28.5 h, 10 µM [%]
O=C(Nc1ccc2n(c1=O)C[C@H]1C[C@@H]2CN(C(=O)Nc2ccc(F)cc2)C1)c1ccco1 [CBK289205] | 85.4
CC1=C[C@@H](CNS(C)(=O)=O)[C@H](C(C)C)C[C@H]1CC(=O)Nc1ccccn1 [CBK289208] | 89.3
CC1=C[C@@H](CNC(=O)NC2CCCCC2)[C@H](C(C)C)C[C@H]1CC(=O)O [CBK289211] | 80.3
CC1=C[C@@H](CNC(=O)c2ccccn2)[C@H](C(C)C)C[C@H]1CC(=O)O [CBK289212] | 87.5
CC(=O)N1CCN(C[C@@H]2C=C(C)[C@H](Cc3nnc(C)o3)C[C@H]2C(C)C)CC1 [CBK289219] | 114
CC1=C[C@@H](CO)[C@H](C(C)C)C[C@H]1Cc1nnc(-c2ccncc2)o1 [CBK289222] | 110
CC1=C[C@@H](CO)[C@H](C(C)C)C[C@H]1Cc1nnc(Cc2c[nH]c3ccccc23)o1 [CBK289223] | 89.1
CC1=C[C@@H](CO)[C@H](C(C)C)C[C@H]1Cc1nnc(-c2ccc(N(C)C)cc2)o1 [CBK289224] | 65
CC(=O)c1ccc(NC(=O)N[C@H]2CCN3C(=O)[C@H]4CCCN4C(=O)[C@H]23)cc1 [CBK289228] | 108
CC(=O)c1ccc(NC(=O)N[C@H]2CCN3C(=O)[C@@H](Cc4ccccc4)NC(=O)[C@H]23)cc1 [CBK289229] | 85.9
COc1cccc(NC(=O)N[C@H]2CCN3C(=O)[C@@H](Cc4ccccc4)NC(=O)[C@H]23)c1 [CBK289230] | 94.5
O=C(N[C@H]1CCN2C(=O)[C@@H](Cc3ccccc3)NC(=O)[C@H]12)c1cnccn1 [CBK289231] | 83.6
O=C(N[C@H]1CCN2C(=O)[C@@H](Cc3c[nH]c4ccccc34)NC(=O)[C@H]12)c1cnccn1 [CBK289232] | 89.3
CC1(C)[C@H](Cc2cc(CO)on2)C[C@@H]1N(Cc1ccncc1)Cc1ccncc1 [CBK289233] | 98.2
CS(=O)(=O)c1ccc(CN2C[C@@H]3OCC(=O)N(c4ccccc4)[C@@H]3C2)cc1 [CBK289237] | 93.2
CC(=O)Nc1ccc(CN2C[C@@H]3OCC(=O)N(C)[C@@H]3C2)cc1 [CBK289240] | 85.5
CC(=O)N[C@H]1C[C@@H](Cc2cc(CN3CCN(c4ccccc4)CC3)on2)C1(C)C [CBK289241] | 109
NC(=O)CN1C(=O)CO[C@H]2CN(Cc3cnc4ccccc4c3)C[C@H]21 [CBK289242] | 106
CC1(C)[C@H](Cc2cc(CN3CCOCC3)on2)C[C@@H]1NC(=O)C1CC1 [CBK289246] | 113
CC(C)(C)C(=O)N[C@H]1C[C@@H](Cc2cc(CN3CCOCC3)on2)C1(C)C [CBK289247] | 96.2
c1ccc(-c2cc(CC3(NCc4c[nH]c5ccccc45)COC3)no2)nc1 [CBK289250] | 102
COCc1cc(C[C@@H]2C[C@H](NC(=O)C(C)(C)C)C2(C)C)no1 [CBK289251] | 81.3
COCc1cc(C[C@@H]2C[C@H](NS(C)(=O)=O)C2(C)C)no1 [CBK289252] | 92.5
CC(C)(C)C(=O)N[C@H]1C[C@@H](Cc2cc(CO)on2)C1(C)C [CBK289260] | 92.1
Fc1ccc(-c2c[nH]c([C@@H]3COCCN3Cc3ncc[nH]3)n2)cc1 [CBK289263] | 95.5

SMILES | viability at 28.5 h, 10 µM [%]
CC(C)[C@H]1NC(=O)[C@@H]2[C@@H](NC(=O)NC3CCCCC3)CCN2C1=O [CBK289264] | 113
CSCC(=O)N1CC[C@H](NC(=O)NC2CCCCC2)[C@H]1C(=O)N1CCC[C@@H]1C(N)=O [CBK289265] | 124
COc1ccc(C(=O)N2CC[C@@H]3NC(=O)[C@H]4C[C@H](NC(=O)C5CCC5)CN4C(=O)[C@H]32)cc1 [CBK289268] | 111
CC(=O)N1CC[C@@H]2NC(=O)[C@H]3C[C@H](NC(=O)c4ccc(F)c(Cl)c4)CN3C(=O)[C@H]21 [CBK289270] | 87
Cn1cccc1C(=O)N[C@H]1C[C@@H]2C(=O)N[C@H]3CCN(C(=O)CC(C)(C)C)[C@@H]3C(=O)N2C1 [CBK289271] | 111
Cn1cccc1C(=O)N[C@H]1C[C@@H]2C(=O)N[C@H]3CCN(C(=O)C4CCCC4)[C@@H]3C(=O)N2C1 [CBK289272] | 97.1
O=C1Nc2ccc(-c3cccc(C(F)(F)F)c3)cc2C(=O)N2C[C@H](O)C[C@@H]12 [CBK289273] | 106
O=C(N[C@H]1CCN2C(=O)c3cc(-c4ccccc4F)ccc3NC(=O)[C@H]12)c1cnccn1 [CBK289274] | 84.7
COc1cccc(N2C(=O)N[C@@H]3CCN(C(=O)c4cccs4)[C@@H]3C2=O)c1 [CBK289279] | 82.3
COCC(=O)N1CC[C@@H]2[C@H]1C(=O)N(c1ccc(OC)cc1)C(=O)N2Cc1ccccc1 [CBK289280] | 92.9
COc1ccc(C(=O)N2CC[C@H]3NC(=O)N(c4ccccc4)C(=O)[C@H]32)cc1 [CBK289281] | 93.1
N#Cc1ccc(C(=O)N2CC[C@H]3NC(=O)N(c4ccccc4)C(=O)[C@H]32)cc1 [CBK289282] | 80.5
CC(C)c1ccc(N2C(=O)N[C@@H]3CCN(C(=O)c4cccs4)[C@@H]3C2=O)cc1 [CBK289286] | 90.7
CC(C)c1ccc(N2C(=O)N[C@@H]3CCN(C(=O)COc4ccccc4)[C@@H]3C2=O)cc1 [CBK289288] | 98.2
COc1ccc(S(=O)(=O)N2CC[C@H]3NC(=O)N(c4ccc(C(C)C)cc4)C(=O)[C@H]32)cc1 [CBK289290] | 107
CCC(CC)C(=O)N1CC[C@H]2NC(=O)N(Cc3ccccc3)C(=O)[C@H]21 [CBK289291] | 88.7
COc1ccc(C(=O)N2CC[C@H]3NC(=O)N(Cc4ccccc4)C(=O)[C@H]32)cc1 [CBK289293] | 94.1
CC(C)(C)c1ccc(C(=O)N2CC[C@H]3NC(=O)N(Cc4ccccc4)C(=O)[C@H]32)cc1 [CBK289294] | 86
COc1ccc(-c2c[nH]c([C@@H]3COCCN3Cc3ccccc3O)n2)cc1 [CBK289296] | 85.1
CS(=O)(=O)c1ccc(-c2c[nH]c([C@@H]3COCCN3C3CCCCC3)n2)cc1 [CBK289299] | 102
CC(C)N1CCOC[C@H]1c1nc(-c2ccc(S(C)(=O)=O)cc2)c[nH]1 [CBK289301] | 91.2
COc1ccc(-c2c[nH]c([C@@H]3COCCN3Cc3ccc(C(=O)O)cc3)n2)cc1 [CBK289305] | 84.1
CS(=O)(=O)c1ccc(-c2c[nH]c([C@@H]3COCCN3Cc3ccc(C(=O)O)cc3)n2)cc1 [CBK289306] | 97.3
CN(C)Cc1cc(C[C@@H]2C[C@H](NS(=O)(=O)c3ccccc3)C2(C)C)no1 [CBK289307] | 112
